Assay results as given in US11992545B2, “Aqueous cosmetic compositions containing pelargonic acid esters” (Novamont S.p.A., priority 2015, dated 2024).

What was measured:
[1] = UV filters dispersion (dispersibility of solid UV filter in ester oils); type: physicochemical; design: key to Filters dispersion t0, 1% / Filters dispersion t0, 10% / Filters dispersion t24, 1% / Filters dispersion t24, 10%: D=homogeneous dispersion; S=sediment deposit; conditions: for Filters dispersion t0, 1%: 1% TiO2, 0 hours at 25° C.; for Filters dispersion t24, 1%: 1% TiO2, 24 hours at 25° C.; for Filters dispersion t0, 10%: 10% TiO2, 0 hours at 25° C.; for Filters dispersion t24, 10%: 10% TiO2, 24 hours at 25° C.; for dispersion of Titania compared with reference solvents: in words
Protocol: The dispersibility of a solid UV filter in different ester oils was tested using Titania (TiO2, commercially available as Titanio Biossido Anatasio from A.C.E.F.). Various ratios of filter/ester (1% and 10% TiO2) were prepared under stirring at 70° C. for 30 minutes. The dispersions were then observed after a storage period of 0 hours (t0) and 24 hours (t24) at ambient temperature (25° C.) to check for the formation of any sediment deposit. Results for each ester are shown in the table below (D=homogeneous dispersion; S=sediment deposit).

[2] = Pigments dispersion: wet point and flow point; type: physicochemical; conditions: for Fp (flow point), amount of ester oil / Wp (wet point), amount of ester oil: grams per 100 g of pigment
Source text: Black Iron Oxide particles (C177499, commercially available as YPC335200 from Yipin) were dispersed in each of the ester oils of the present invention and in ester oil commonly used as cosmetic ingredients. Each sample of powder particles was wetted by the dropwise addition of one ester oil and then vigorously blended using a spatula until the wet point and the flow point were reached.
The wet point is defined as the minimum volume of dispersant solution to produce a soft coherent mass; the further minimum addition of dispersant solution to produce flow or falling off of the homogeneous mass from the vertical blade of a horizontally held spatula determines the flow point.
The amounts of dispersant solution (i.e. ester oil) needed to reach the wet point (Wp) and the flow point (Fp) were recorded and reported in the table below, expressed in grams per 100 g of pigment.

Filters dispersion t0, 1% [1] | Filters dispersion t24, 1% [1] | Filters dispersion t0, 10% [1] | Filters dispersion t24, 10% [1] | Fp (flow point), amount of ester oil [2] | Wp (wet point), amount of ester oil [2] | dispersion of Titania compared with reference solvents [1] | less solvent required in the final composition [2] | dispersion properties compared with commonly used cosmetic ingredients ([2]; in words) | SMILES
D | S | D | S | 145.00 g | 50.00 g |  |  |  | CC(C)CCCCCCOC(=O)CCCCCC(C)C [Isononyl Isononanoate, reference compound]
D | D | D | S/D | 100.00 g | 60.00 g | even better | about 30% | even better | CCCCCCCCC(=O)OCC(COC(=O)CCCCCCCC)OC(=O)CCCCCCCC [Glycerol tripelargonate]
D | S/D | D | S/D | 166.00 g | 61.00 g |  |  |  | CCCCCCCCC(=O)OCC(C)(C)COC(=O)CCCCCCCC [Neopentyl glycol dipelargonate]
D | D | D | D | 132.00 g | 62.00 g | even better |  |  | CCCCCCCCC(=O)OCC(COC(=O)CCCCCCCC)(COC(=O)CCCCCCCC)COC(=O)CCCCCCCC [Pentaerythritol tetrapelargonate]
